Laboratory results reported in patent publication US12258354B2, “AhR modulators” (IDEAYA BIOSCIENCES, INC., priority 2018, dated 2025).
pIC50: −log10 of the molar value.

Target: T1, hAhR (Homo sapiens, UniProt P35869)
T1 construct: Stably integrated DRE-luciferase cell lines were generated by transducing the both cell lines with Cignal XRE luciferase reporter; endogenous in cells; host or cells: HEPG2 DRE-Luc cells (only the XRE luciferase reporter was transduced)
T1 sequence (P35869 11-848): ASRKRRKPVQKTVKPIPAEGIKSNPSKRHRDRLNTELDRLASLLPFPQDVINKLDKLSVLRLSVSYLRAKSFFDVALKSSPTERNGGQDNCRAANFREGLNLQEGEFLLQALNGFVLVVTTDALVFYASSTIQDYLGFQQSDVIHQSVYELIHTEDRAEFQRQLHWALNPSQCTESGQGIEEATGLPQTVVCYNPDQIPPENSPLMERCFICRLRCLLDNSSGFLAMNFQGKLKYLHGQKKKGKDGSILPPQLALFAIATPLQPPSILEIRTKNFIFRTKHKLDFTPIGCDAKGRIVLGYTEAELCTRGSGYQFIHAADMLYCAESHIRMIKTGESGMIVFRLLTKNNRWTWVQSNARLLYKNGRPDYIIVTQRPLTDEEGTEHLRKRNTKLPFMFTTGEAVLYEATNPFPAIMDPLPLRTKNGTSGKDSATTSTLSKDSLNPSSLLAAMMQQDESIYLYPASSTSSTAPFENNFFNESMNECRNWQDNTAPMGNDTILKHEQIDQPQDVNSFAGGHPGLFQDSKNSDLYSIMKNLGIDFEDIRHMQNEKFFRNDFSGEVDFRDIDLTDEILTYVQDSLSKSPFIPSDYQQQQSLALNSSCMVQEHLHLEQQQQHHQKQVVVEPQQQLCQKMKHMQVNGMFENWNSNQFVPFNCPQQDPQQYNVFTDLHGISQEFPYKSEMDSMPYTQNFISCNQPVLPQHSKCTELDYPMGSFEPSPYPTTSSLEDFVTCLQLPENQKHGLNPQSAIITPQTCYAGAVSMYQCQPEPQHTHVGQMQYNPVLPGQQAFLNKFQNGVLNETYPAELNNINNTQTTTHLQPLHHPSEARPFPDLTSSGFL
Assay: DRE-luciferase transcriptional reporter assay in HEPG2 DRE-Luc cells, TCDD-induced (antagonist mode)
Type: cell-based
Details: relative IC50, 3 nM TCDD, 24-hour incubation, firefly luciferase readout
Experimental: HEPG2 and HEPA1C1C7 cells were maintained in MEM and αMEM without nucleosides supplemented with 10% heat inactivated FBS respectively. Stably integrated DRE-luciferase cell lines were generated by transducing the both cell lines with Cignal XRE luciferase reporter (Qiagen) lentiviral particles according to the manufacturer protocol. For both cell lines stably integrated reporter cell lines were selected for the presence of 2 μg/mL puromycin. Following selection of stably integrated cell line pools, clonal cell lines were isolated by limiting dilution in 96-well plates. Transcriptional assays were performed by seeding 100 μL of cells at a density of 250,000 or 100,000 cells/mL, for HEPG2 and HEPA1C1C7 DRE-Luc cells respectively, into 96-well cell culture plates in OptiMEM supplemented with 0.5% heat inactivated FBS and allowed to attach overnight. For modulator assays, the compounds were added in a semi-log dose response using a D300e Digital Dispenser (Tecan) followed normalization with vehicle (DMSO). Immediately following compound addition 10 μL of 2,3,7,8-Tetrachlorodibenzo-p-dioxin (TCDD) was added to the cells to a final concentration of 3 nM or 0.3 nM for the HEPG2 and HEPA1C1C7 DRE-Luc cells respectively. Following 24-hour incubation, the medium was removed and the cells were lysed in 25 μL of Reporter Lysis Buffer (Promega). Firefly luciferase activity was measured immediately following the addition of 50 μL Luciferase Assay Reagent (Promega). The percent maximal activity for each point was determined using the following equation: (RLUsample−RLUvehicle−TCDD)/(RLUvehicle+TCDD RLUvehicle−TCDD)*100. The relative IC50, defined as the compound concentration required to reduce the TCDD induced response between the top and bottom plateau of each individual dose response curve by half, for each compound was determined using Prism 7 (GraphPad Software).

Row | Compound | pIC50
1 | 2-((2-hydroxy-2-azaspiro[3.3]heptan-2-yl)methyl)-3-methyl-5-(2-methyl-4-(6-(trifluoromethyl)pyrido[3,2-d]pyrimidin-2-yl)phenyl)-6,7-dihydropyrazolo[1,5-a]pyrazin-4 (5H)-one [Example 109] | > 6.70
2 | Cc1cc(-c2ncc3cc(C(F)(F)F)ccc3n2)ccc1N1CCn2ncc(C)c2S1(=O)=O [Example 93, 8-methyl-2-(2-methyl-4-(6-(trifluoromethyl)quinazolin-2-yl)phenyl)-3,4-dihydro-2H-pyrazolo[1,5-e][1,2,5]thiadiazine 1,1-dioxide] | > 6.70
3 | Cc1cc(-c2ncc3cc(C(F)(F)F)ccc3n2)ccc1N1CCn2ncc(C3NC(=O)NC3=O)c2C1=O (stereo not drawn) [Example 94, 5-(5-(2-methyl-4-(6-(trifluoromethyl)quinazolin-2-yl)phenyl)-4-oxo-4,5,6,7-tetrahydropyrazolo[1,5-a]pyrazin-3-yl)imidazolidine-2,4-dione] | > 6.70
4 | Cc1cc(-c2ncc3cc(C(F)(F)F)ccc3n2)ccc1N1CCn2nc(CN3CCO[C@H](C)C3)c(C)c2C1=O [Example 95, (R)-3-methyl-5-(2-methyl-4-(6-(trifluoromethyl)quinazolin-2-yl)phenyl)-2-((2-methylmorpholino)methyl)-6,7-dihydropyrazolo[1,5-a]pyrazin-4 (5H)-one] | > 6.70
5 | Cc1cc(-c2ncc3cc(C(F)(F)F)ccc3n2)ccc1N1CCn2nc(CN3CCO[C@@H](C)C3)c(C)c2C1=O [Example 96, (S)-3-methyl-5-(2-methyl-4-(6-(trifluoromethyl)quinazolin-2-yl)phenyl)-2-((2-methylmorpholino)methyl)-6,7-dihydropyrazolo[1,5-a]pyrazin-4 (5H)-one] | > 6.70
6 | Cc1cc(-c2ncc3cc(C(F)(F)F)ccc3n2)ccc1N1CCn2nc(COP(=O)(O)O)c(C)c2C1=O [Example 97, (3-methyl-5-(2-methyl-4-(6-(trifluoromethyl)quinazolin-2-yl)phenyl)-4-oxo-4,5,6,7-tetrahydropyrazolo[1,5-a]pyrazin-2-yl)methyl dihydrogen phosphate] | > 6.70
7 | Cc1cc(-c2ncc3cc(C(F)(F)F)ccc3n2)ccc1N1CCn2nc(CN3CCC(=O)CC3)c(C)c2C1=O [Example 98, 3-methyl-5-(2-methyl-4-(6-(trifluoromethyl)quinazolin-2-yl)phenyl)-2-((4-oxopiperidin-1-yl)methyl)-6,7-dihydropyrazolo[1,5-a]pyrazin-4 (5H)-one] | > 6.70
8 | Cc1cc(-c2ncc3cc(C(F)(F)F)ccc3n2)ccc1N1CCn2nc(CN3CCC(F)CC3)c(C)c2C1=O [Example 99, 2-((4-fluoropiperidin-1-yl)methyl)-3-methyl-5-(2-methyl-4-(6-(trifluoromethyl)-quinazolin-2-yl)phenyl)-6,7-dihydropyrazolo[1,5-a]pyrazin-4 (5H)-one] | > 6.70
9 | Cc1cc(-c2ncc3cc(C(F)(F)F)ccc3n2)ccc1N1CCn2nc(CN3CCC(O)CC3)c(C)c2C1=O [Example 100, 2-((4-hydroxypiperidin-1-yl)methyl)-3-methyl-5-(2-methyl-4-(6-(trifluoromethyl)-quinazolin-2-yl)phenyl)-6,7-dihydropyrazolo[1,5-a]pyrazin-4 (5H)-one] | > 6.70
10 | Cc1cc(-c2ncc3cc(C(F)(F)F)ccc3n2)ccc1N1CCn2nc(CN3CCS(=O)(=O)CC3)c(C)c2C1=O [Example 101, 2-((1,1-dioxidothiomorpholino)methyl)-3-methyl-5-(2-methyl-4-(6-(trifluoro-methyl)quinazolin-2-yl)phenyl)-6,7-dihydropyrazolo[1,5-a]pyrazin-4 (5H)-one] | > 6.70
11 | Cc1cc(-c2ncc3cc(C(F)(F)F)ccc3n2)ccc1N1CCn2nc(CN3CCC4(CC3)COC4)c(C)c2C1=O [Example 102, 2-((2-oxa-7-azaspiro[3.5]nonan-7-yl)methyl)-3-methyl-5-(2-methyl-4-(6-(trifluoromethyl)quinazolin-2-yl)phenyl)-6,7-dihydropyrazolo[1,5-a]pyrazin-4 (5H)-one] | > 6.70
12 | Cc1cc(-c2ncc3cc(C(F)(F)F)ccc3n2)ccc1N1CCn2nc(CN3CCN(C)CC3)c(C)c2C1=O [Example 103, 3-methyl-5-(2-methyl-4-(6-(trifluoromethyl)quinazolin-2-yl)phenyl)-2-((4-methyl-piperazin-1-yl)methyl)-6,7-dihydropyrazolo[1,5-a]pyrazin-4 (5H)-one] | > 6.70
13 | Cc1cc(-c2ncc3cc(C(F)(F)F)ccc3n2)ccc1N1CCn2nc(CN3CCN(C)C(=O)C3)c(C)c2C1=O [Example 104, 3-methyl-2-((4-methyl-3-oxopiperazin-1-yl)methyl)-5-(2-methyl-4-(6-(trifluoro-methyl)quinazolin-2-yl)phenyl)-6,7-dihydropyrazolo[1,5-a]pyrazin-4 (5H)-one] | > 6.70
14 | Cc1cc(-c2ncc3nc(C(F)(F)F)ccc3n2)ccc1N1CCn2nc(CN3CCOCC3)c(C)c2C1=O [Example 105, 3-methyl-5-(2-methyl-4-(6-(trifluoromethyl)pyrido[3,2-d]pyrimidin-2-yl)phenyl)-2-(morpholinomethyl)-6,7-dihydropyrazolo[1,5-a]pyrazin-4 (5H)-one] | > 6.70
15 | Cc1cc(-c2ccc3nc(C(F)(F)F)ccc3n2)ccc1N1CCn2nc(CN3CCOCC3)c(C)c2C1=O [Example 106, 3-methyl-5-(2-methyl-4-(6-(trifluoromethyl)-1,5-naphthyridin-2-yl)phenyl)-2-(morpholinomethyl)-6,7-dihydropyrazolo[1,5-a]pyrazin-4 (5H)-one] | > 6.70
16 | Cc1cc(-c2ncc3cc(C(F)(F)F)ccc3n2)ccc1N1CCn2nc(C(=O)N3CCN(C)CC3)c(C)c2C1=O [Example 107, 3-methyl-5-(2-methyl-4-(6-(trifluoromethyl)quinazolin-2-yl)phenyl)-2-(4-methylpiperazine-1-carbonyl)-6,7-dihydropyrazolo[1,5-a]pyrazin-4 (5H)-one] | > 6.70
17 | Cc1cc(-c2ncc3cc(C(F)(F)F)ccc3n2)ccc1N1CCn2nc(CN3CCC(F)(F)CC3)c(C)c2C1=O [Example 108, 2-((4,4-difluoropiperidin-1-yl)methyl)-3-methyl-5-(2-methyl-4-(6-(trifluoro-methyl)quinazolin-2-yl)phenyl)-6,7-dihydropyrazolo[1,5-a]pyrazin-4 (5H)-one] | > 6.70
18 | Cc1cc(-c2ncc3cc(C(F)(F)F)ccc3n2)ccc1N1CCn2nc(CN3CCCC4(COC4)C3)c(C)c2C1=O [Example 110, 2-((2-oxa-6-azaspiro[3.5]nonan-6-yl)methyl)-3-methyl-5-(2-methyl-4-(6-(trifluoro-methyl)quinazolin-2-yl)phenyl)-6,7-dihydropyrazolo[1,5-a]pyrazin-4 (5H)-one] | > 6.70
19 | Cc1cc(-c2ncc3cc(C(F)(F)F)ccc3n2)ccc1N1CCn2nc(CN3CCC4(COC4)C3)c(C)c2C1=O [Example 111, 2-((2-oxa-6-azaspiro[3.4]octan-6-yl)methyl)-3-methyl-5-(2-methyl-4-(6-(trifluoromethyl)quinazolin-2-yl)phenyl)-6,7-dihydropyrazolo[1,5-a]pyrazin-4 (5H)-one] | > 6.70
20 | Cc1cc(-c2ncc3cc(C(F)(F)F)ccc3n2)ccc1N1CCn2nc(C(C)N3CCOCC3)c(C)c2C1=O (stereo not drawn) [Example 112, 3-methyl-5-(2-methyl-4-(6-(trifluoromethyl)quinazolin-2-yl)phenyl)-2-(1-morpholinoethyl)-6,7-dihydropyrazolo[1,5-a]pyrazin-4 (5H)-one] | > 6.70
21 | Cc1cc(-c2ncc3cc(C(F)(F)F)ccc3n2)ccc1N1CCn2nc(N)c(C)c2C1=O [Example 113, 2-amino-3-methyl-5-(2-methyl-4-(6-(trifluoromethyl)quinazolin-2-yl)phenyl)-6,7-dihydropyrazolo[1,5-a]pyrazin-4 (5H)-one] | > 6.70
